“Also recorded” adds a separate entry of the source.
Columns and labels:
[1] = biological target: T1, GPIIb/IIIa (Homo sapiens, UniProt P05106+P08514); experiment: In vitro solid phase purified glycoprotein IIb/IIIa binding assay (biotinylated fibrinogen); details: Table I
T1 sequence (P08514 32-887 limits assumed): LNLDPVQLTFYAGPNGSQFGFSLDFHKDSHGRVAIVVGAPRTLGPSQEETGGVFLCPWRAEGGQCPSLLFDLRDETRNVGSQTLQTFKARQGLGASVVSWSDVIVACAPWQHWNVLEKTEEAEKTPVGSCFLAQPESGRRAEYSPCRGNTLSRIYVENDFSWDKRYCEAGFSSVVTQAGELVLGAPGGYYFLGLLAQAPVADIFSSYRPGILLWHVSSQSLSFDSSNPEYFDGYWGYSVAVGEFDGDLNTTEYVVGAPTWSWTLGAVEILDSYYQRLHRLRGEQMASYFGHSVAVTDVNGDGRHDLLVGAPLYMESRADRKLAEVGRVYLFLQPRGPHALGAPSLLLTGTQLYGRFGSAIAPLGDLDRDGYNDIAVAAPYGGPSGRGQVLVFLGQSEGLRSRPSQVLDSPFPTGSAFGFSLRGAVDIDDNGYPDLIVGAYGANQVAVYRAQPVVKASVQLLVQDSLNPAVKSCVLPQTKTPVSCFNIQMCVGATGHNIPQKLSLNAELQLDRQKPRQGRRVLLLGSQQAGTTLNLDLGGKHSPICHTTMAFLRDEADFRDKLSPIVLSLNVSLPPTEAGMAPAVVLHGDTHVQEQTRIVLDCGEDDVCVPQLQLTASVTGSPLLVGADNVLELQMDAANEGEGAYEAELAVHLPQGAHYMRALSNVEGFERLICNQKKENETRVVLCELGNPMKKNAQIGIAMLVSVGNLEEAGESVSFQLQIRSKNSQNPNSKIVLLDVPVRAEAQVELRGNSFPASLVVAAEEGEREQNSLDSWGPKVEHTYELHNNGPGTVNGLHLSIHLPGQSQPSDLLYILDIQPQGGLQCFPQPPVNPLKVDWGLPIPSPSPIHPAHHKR
T1 sequence (P05106 27-788): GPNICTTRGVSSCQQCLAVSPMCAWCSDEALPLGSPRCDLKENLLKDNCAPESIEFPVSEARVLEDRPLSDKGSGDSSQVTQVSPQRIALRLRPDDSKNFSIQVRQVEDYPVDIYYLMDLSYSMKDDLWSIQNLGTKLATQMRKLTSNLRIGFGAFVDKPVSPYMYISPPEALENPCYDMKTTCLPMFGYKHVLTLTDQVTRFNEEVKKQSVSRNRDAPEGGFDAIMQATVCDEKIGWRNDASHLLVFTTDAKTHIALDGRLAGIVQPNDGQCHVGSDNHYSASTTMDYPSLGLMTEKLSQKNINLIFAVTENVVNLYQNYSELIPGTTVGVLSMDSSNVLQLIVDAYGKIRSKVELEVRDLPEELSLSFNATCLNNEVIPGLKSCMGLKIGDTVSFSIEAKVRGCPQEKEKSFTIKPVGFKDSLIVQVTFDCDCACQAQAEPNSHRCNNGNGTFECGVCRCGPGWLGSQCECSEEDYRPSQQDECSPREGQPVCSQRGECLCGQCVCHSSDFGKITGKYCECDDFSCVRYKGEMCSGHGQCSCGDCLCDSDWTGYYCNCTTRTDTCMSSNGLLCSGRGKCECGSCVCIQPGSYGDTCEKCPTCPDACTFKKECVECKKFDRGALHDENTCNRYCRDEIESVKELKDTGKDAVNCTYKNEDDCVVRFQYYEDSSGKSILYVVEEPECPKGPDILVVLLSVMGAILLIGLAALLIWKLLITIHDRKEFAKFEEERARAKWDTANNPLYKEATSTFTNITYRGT
Source text: The compounds of the present invention interrupt binding of fibrinogen to platelet glycoprotein IIb/IIIa (GPIIb/IIIa) and thereby inhibit platelet aggregation. […] Because the final, common pathway in normal platelet aggregation is the binding of fibrinogen to activated, exposed GPIIb/IIIa, inhibition of this binding represents a plausible antithrombotic approach. The receptor is activated by stimuli such as ADP, collagen, and thrombin, exposing binding domains to two different peptide regions of fibrinogen: α-chain Arg-Gly-Asp (RGD) and γ-chain 400-411.
IN VITRO SOLID PHASE PURIFIED GLYCOPROTEIN IIB/IIIA BINDING ASSAY.
The plate is covered and incubated overnight at 4° C. The GPIIb/IIa solution is discarded and 150 μl of 5% BSA is added and incubated at RT for 1-3 h. The plate is washed extensively with modified Tyrodes buffer. Biotinylated fibrinogen (25 μl/well) at 2× final concentration is added to the wells that contain the test compounds (25 μl/well) at 2× final concentration. The plate is covered and incubated at RT for 2-4 h. Twenty minutes prior to incubation completion, one drop of Reagent A (Vecta Stain ABC Horse Radish Peroxidase kit, Vector Laboratories, Inc.) and one drop Reagent B are added with mixing to 5 mL modified Tyrodes buffer mix and let stand. The ligand solution is discarded and the plate washed (5×200 μl/well) with modified Tyrodes buffer. Vecta Stain HRP-Biotin-Avidin reagent (50 μl/well, as prepared above) is added and incubated at RT for 15 min. The Vecta Stain solution is discarded and the wells washed (5×200 μl/well) with modified Tyrodes buffer. […] The absorbance is read at 490 nm.

[2] = test system: gel-filtered platelets; experiment: In vitro inhibition of thrombin-induced gel-filtered platelet aggregation assay; type: cell-based; details: *Indicates IC50, read-out: Pl. Aggr. IC50
Description: IN VITRO INHIBITION OF THROMBIN-INDUCED GEL-FILTERED PLATELET AGGREGATION ASSAY.
The percentage of platelet aggregation is calculated as an increase in light transmission of compound treated platelet concentrate vs. control treated platelet concentrate. Blood is obtained from drug free, normal donors into tubes containing 0.13M sodium citrate. Platelet rich plasma (PRP) is collected by centrifugation of whole blood at 200×g for 10 min at 25° C. The PRP (5 mL) is gel filtered through Sepharose 2B (bed volume 50 mL), and the platelet count is adjusted to 2×10^7platelets per sample. The following constituents are added to a siliconized cuvette: concentrated platelet filtrate and Tyrode's buffer (0.1 4M NaCl, 0.0027M KCl, 0.01 2M NaHCO3, 0.76 mM Na2 HPO4, 0.0055M glucose, 2 mg/mL BSA and 5.0 mM HEPES @ pH 7.4) in an amount equal to 350 μl, 50 μl of 20 mM calcium and 50 μl of the test compound. Aggregation is monitored in a BIODATA aggregometerforthe 3 min following the addition of agonist (thrombin 50 μl of 1 unit/mL).

[3] = test system: platelet aggregation; experiment: Ex vivo dog study: platelet aggregation and ATP release in whole blood and PRP; parameters: species or system mongrel dogs
Description: Adult mongrel dogs (8-13 kg) were anesthetized with sodium pentobarbital (35 mg/kg, i.v.) and artificially respired. Arterial blood pressure and heart rate were measured using a Millar catheter-tip pressure transducer inserted in a femoral artery. Another Millar transducer was placed in the left ventricle (LV) via a carotid artery to measure LV end diastolic pressure and indices of myocardial contractility. A lead II electrocardiogram was recorded from limb electrodes. Catheters were placed in a femoral artery and vein to sample blood and infuse drugs, respectively. Responses were continuously monitored using a Modular Instruments data aquisition system.
(§1) Arterial blood samples (5-9 ml) were withdrawn into tubes containing 3.8% sodium citrate to prepare platelet rich plasma (PRP) and to determine effects on coagulation parameters: prothrombin time (PT) and activated partial thromboplastin time (APTT). Separate blood samples (1.5 ml) were withdrawn in EDTA to determine hematocrit and cell counts (platelets, RBC's and white cells). Template bleeding times were obtained from the buccal surface using a symplate incision devise and Whatman filter paper.
(§2) Aggregation of PRP was performed using a BioData aggregometer. Aggregation of whole blood used a Chronolog impedance aggregometer. PT and APTT were determined on either a BioData or ACL 3000+ coagulation analyser. Cells were counted with a Sysmex K-1000.
(§3) Compound 17 was solubilized in a small volume of dimethylformamide (DMF) and diluted with saline to a final concentration of 10% DMF. Compound 17 was administered by the intravenous route with a Harvard infusion pump. Doses of 0.3, 1, 3, and 10 mg/kg were given in a cumulative fashion to each animal. Each dose was administered over a 15 min interval at a constant rate of 0.33 ml/min. Data were obtained after each dose and 30 and 60 min following the end of drug administration.

[4] = parameters: species or system mongrel dogs; details: dog, in vivo, iv
Description: as §1, §2, §3

For `O=C(O)CCNC(=O)C1CCCN(C(=O)CCC2CCNCC2)C1` (stereo not drawn) [Compound 17, N-[3-(4-Piperidinepropionyl)]-Nip-β-Ala-OH], the IC50 [1] was 0.003 µM, the IC50 [2] was 0.13 µM and the “platelet function began to recover” value ([3]; PRP and whole blood, post treatment) was 30 to 60 min. For the same molecule, the “Gamma thrombin induced aggregation of PRP” value ([3]; PRP, doses of 3.0 mg/kg and above, iv) was “inhibited at doses of 3.0 mg/kg and above”, the “collagen stimulated platelet aggregation, PRP” value ([3]; PRP, marked activity at 0.3 mg/kg iv) was “marked activity at 0.3 mg/kg” and the “duration of drug action / antiaggregatory effect” value ([3]; iv) was “relatively short duration of drug action”. The “ex vivo platelet aggregation responses” value ([3]; iv, 0.3-10 mg/kg cumulative) was “marked inhibition of ex vivo platelet aggregation responses; also recorded: broadly effective inhibitor of platelet aggregation ex vivo”, the “collagen stimulated platelet ATP release” value ([3]; whole blood, 10 mg/kg iv) was “marked inhibition” and the “collagen-stimulated aggregation, whole blood” value ([3]; whole blood, doses of 0.3-10 mg/kg iv) was “inhibited”. The “bleeding time at the higher doses” value [4] was “increases in bleeding time at the higher doses”, the “coagulation (PT or APTT)” value [4] was “No effects on coagulation” and the “platelet, white and RBC counts” value [4] was “unchanged at any dose”.
